Legend:
conscious ferret = experiment: Emesis and behavioral changes in conscious ferret; type: in vivo, ferrets (Mustela Pulorius Euro); settings: for Ataxia / Backward walking / Flattened posture / Lip licking / Mouth clawing / Panting / Retches / Salivation / Vomits: severity (number of animals that responded)
Protocol: The conscious ferret model has been used to investigate anti-inflammatory, emetic and behavioral effects of PDE4 inhibitors when administered by the oral (p.o.) route. From these experiments, a therapeutic index (TI) for each PDE4 inhibitor may be determined. The TI has been calculated by dividing the threshold dose for causing emetic episodes and behavioral changes by the anti-inflammatory dose (dose that causes 50% inhibition of the LPS-induced neutrophilia).
PDE4 inhibitors were administered orally (p.o.), at doses initially of […], but subsequently up to 30 mg/kg in order to establish whether the TI was 10 or higher, and/or at lower doses to establish the minimum dose to cause 50% inhibition of neutrophilia. Ferrets were fasted overnight but allowed free access to water. The animals were orally dosed with vehicle or PDE4 inhibitor using a 15 cm dosing needle that was passed down the back of the throat into the oesophagus. After dosing, the animals were returned to holding cages fitted with Perspex doors to allow observation, and given free access to water. After dosing, the animals were constantly observed and any emesis or behavioral changes were recorded. The animals were allowed access to food 60 to 90 minutes after p.o. dosing.
Thirty minutes after p.o. dosing with compound or vehicle control, the ferrets were placed into sealed Perspex containers and exposed to an aerosol of LPS (100 µg/ml) for 10 minutes. Aerosols of LPS were generated by a nebulizer (DeVilbiss, USA) and this was directed into the Perspex exposure chamber. Following a 10 minute exposure period, the animals were returned to the holding cages and allowed free access to water, and at a later stage, food. Observation continued for a period of at least 2.5 hours post p.o. dosing and emetic episodes and behavioral changes were recorded.
2. Emetic episodes - the number of vomits and retches were counted.
3. Behavioral changes - the following behavioral effects were noted: salivation, panting, mouth clawing, flattened posture, ataxia, arched back and backward walking. Any behavioral changes were semi-quantified by applying a severity rating (mild, moderate or severe).
4. The TI was calculated as the highest dose found to not cause emetic episodes divided by the lowest dose found to inhibit pulmonary neutrophilia by 50% or more.
Numbers in parentheses refer to the number of animals that responded. The numbers of animals in each group range from 4 to 22.
From these experiments, a therapeutic index (TI) was determined for each compound by dividing the threshold dose for inducing emetic episodes by the ED50 value for inhibiting the pulmonary neutrophilia. […] Table 4. Summary of the effective doses (ED50) for inhibition of LPS-induced pulmonary neutrophilia and induction of emesis and the therapeutic index derived from these values

[1] = target: PDE3 from human platelets (Homo sapiens, UniProt Q14432); experiment: PDE3 enzyme assay; type: biochemical
Sequence of PDE3 from human platelets (Q14432 whole entry): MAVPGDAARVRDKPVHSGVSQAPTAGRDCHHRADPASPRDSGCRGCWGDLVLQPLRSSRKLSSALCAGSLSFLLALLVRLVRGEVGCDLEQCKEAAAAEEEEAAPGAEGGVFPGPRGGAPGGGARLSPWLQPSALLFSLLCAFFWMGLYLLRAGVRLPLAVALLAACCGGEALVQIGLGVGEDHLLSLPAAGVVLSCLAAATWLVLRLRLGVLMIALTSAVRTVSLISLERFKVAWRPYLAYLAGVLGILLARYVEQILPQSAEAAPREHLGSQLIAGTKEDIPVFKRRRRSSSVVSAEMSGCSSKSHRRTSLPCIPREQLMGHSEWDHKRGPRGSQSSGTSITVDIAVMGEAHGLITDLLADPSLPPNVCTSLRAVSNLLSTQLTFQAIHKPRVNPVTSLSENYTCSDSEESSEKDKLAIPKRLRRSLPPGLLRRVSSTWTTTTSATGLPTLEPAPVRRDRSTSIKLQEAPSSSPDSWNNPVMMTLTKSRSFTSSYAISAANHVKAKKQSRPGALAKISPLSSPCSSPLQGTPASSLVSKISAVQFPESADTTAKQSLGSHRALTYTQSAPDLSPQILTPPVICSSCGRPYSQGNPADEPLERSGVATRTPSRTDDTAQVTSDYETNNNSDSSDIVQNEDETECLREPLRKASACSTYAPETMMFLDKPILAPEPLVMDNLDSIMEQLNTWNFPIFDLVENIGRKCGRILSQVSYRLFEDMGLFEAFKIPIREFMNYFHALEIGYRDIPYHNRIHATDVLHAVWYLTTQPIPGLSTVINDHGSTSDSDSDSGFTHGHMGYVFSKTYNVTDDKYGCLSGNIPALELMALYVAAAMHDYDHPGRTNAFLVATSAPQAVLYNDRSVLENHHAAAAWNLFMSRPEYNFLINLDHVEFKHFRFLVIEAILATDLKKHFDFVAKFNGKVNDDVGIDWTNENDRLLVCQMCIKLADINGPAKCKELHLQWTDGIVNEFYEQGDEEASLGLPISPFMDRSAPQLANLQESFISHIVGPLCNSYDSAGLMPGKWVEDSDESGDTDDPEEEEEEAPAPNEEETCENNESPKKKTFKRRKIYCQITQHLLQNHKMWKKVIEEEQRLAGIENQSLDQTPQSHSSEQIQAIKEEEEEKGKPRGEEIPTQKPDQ

cAMP = experiment: PGE2-induced cAMP elevation in human PBMC; type: cell-based; settings: PGE2 (10µM)
Protocol: Prostaglandin E2 (PGE2) binds to prostanoid receptors on monocytes, T cells and other leukocytes and consequently elevates intracellular cAMP levels, resulting in inhibition of cellular responses. The combination of PGE2 and a PDE4 inhibitor synergistically elevates cAMP levels in these cell types, and the elevation of cAMP in PBMC caused by PDE4 inhibitors in the presence of PGE2 is proportional to the inhibitory activity of that PDE4 inhibitor. Intracellular cAMP was measured in human PBMC as follows. PBMC were isolated as described above and plated in 96-well plates at 1 x 10^6 cells per well in RPMI-1640. The cells were pre-treated with compounds at 100, 10, 1, 0.1, 0.01, and 0 µM in a final concentration of 2% DMSO in duplicate at 37°C in a humidified incubator at 5% CO2 for one hour. The cells were then stimulated with PGE2 (10µM) (Sigma) for 1h. The cells were lysed with HCl, 0.1 N final concentration to inhibit phosphodiesterase activity and the plates were frozen at -20°C. The cAMP produced was measured using cAMP (low pH) Immunoassay kit (R&D Systems).

CCOc1cc(C(CS(C)(=O)=O)N2C(=O)c3cccc(NC(C)=O)c3C2=O)ccc1OC (single isomer, unassigned; (+)) [Compound A, (+)-2-[1-(3-ethoxy-4-methoxyphenyl)-2-methylsulfonylethyl]-4-acetylaminoisoindoline-1,3-dione]
Ataxia (conscious ferret; 0.1 mg/kg oral): None
Backward walking (conscious ferret; 0.1 mg/kg oral): Mild (3/5)
Flattened posture (conscious ferret; 0.1 mg/kg oral): Mild (2/5)
Lip licking (conscious ferret; 0.1 mg/kg oral): Mild (4/5)
Mouth clawing (conscious ferret; 0.1 mg/kg oral): None
Panting (conscious ferret; 0.1 mg/kg oral): None
Retches (conscious ferret; 0.1 mg/kg oral): None
Salivation (conscious ferret; 0.1 mg/kg oral): None
Vomits (conscious ferret; 0.1 mg/kg oral): None
Ataxia (conscious ferret; 0.3 mg/kg oral): None
Backward walking (conscious ferret; 0.3 mg/kg oral): Mild (4/6)
Flattened posture (conscious ferret; 0.3 mg/kg oral): Mild (2/6)
Lip licking (conscious ferret; 0.3 mg/kg oral): Mild (3/6)
Mouth clawing (conscious ferret; 0.3 mg/kg oral): None
Panting (conscious ferret; 0.3 mg/kg oral): None
Retches (conscious ferret; 0.3 mg/kg oral): None
Salivation (conscious ferret; 0.3 mg/kg oral): None
Vomits (conscious ferret; 0.3 mg/kg oral): None
Ataxia (conscious ferret; 1.0 mg/kg oral): None
Backward walking (conscious ferret; 1.0 mg/kg oral): Mild (4/6)
Flattened posture (conscious ferret; 1.0 mg/kg oral): Mild (2/6)
Lip licking (conscious ferret; 1.0 mg/kg oral): Mild (6/6)
Mouth clawing (conscious ferret; 1.0 mg/kg oral): None
Panting (conscious ferret; 1.0 mg/kg oral): None
Retches (conscious ferret; 1.0 mg/kg oral): None
Salivation (conscious ferret; 1.0 mg/kg oral): None
Vomits (conscious ferret; 1.0 mg/kg oral): None
Ataxia (conscious ferret; 3.0 mg/kg oral): None
Backward walking (conscious ferret; 3.0 mg/kg oral): Moderate (5/8)
Flattened posture (conscious ferret; 3.0 mg/kg oral): Marked (7/8)
Lip licking (conscious ferret; 3.0 mg/kg oral): Mild (2/8)
Mouth clawing (conscious ferret; 3.0 mg/kg oral): Mild (1/8)
Panting (conscious ferret; 3.0 mg/kg oral): None
Retches (conscious ferret; 3.0 mg/kg oral): None
Salivation (conscious ferret; 3.0 mg/kg oral): None
Vomits (conscious ferret; 3.0 mg/kg oral): None
Ataxia (conscious ferret; 10 mg/kg oral): None
Backward walking (conscious ferret; 10 mg/kg oral): Marked (6/6)
Flattened posture (conscious ferret; 10 mg/kg oral): Marked (6/6)
Lip licking (conscious ferret; 10 mg/kg oral): Moderate (5/6)
Mouth clawing (conscious ferret; 10 mg/kg oral): Mild (1/6)
Panting (conscious ferret; 10 mg/kg oral): None
Salivation (conscious ferret; 10 mg/kg oral): Mild (1/6)
Vomits (conscious ferret; 10 mg/kg oral): None
behavioral changes (severity) (conscious ferret; 10 mg/kg, p.o.): mild or moderate
emetic episodes (retching and vomiting) (conscious ferret; 10 mg/kg, p.o., in 2/6 ferrets): some retching but no frank emesis
Ataxia (conscious ferret; 30 mg/kg oral): Mild (3/4)
Backward walking (conscious ferret; 30 mg/kg oral): Mild (2/4)
Flattened posture (conscious ferret; 30 mg/kg oral): Marked (4/4)
Lip licking (conscious ferret; 30 mg/kg oral): Moderate (4/4)
Mouth clawing (conscious ferret; 30 mg/kg oral): Marked (4/4)
Panting (conscious ferret; 30 mg/kg oral): Mild (1/4)
Retches (conscious ferret; 30 mg/kg oral): Marked (3/4)
Salivation (conscious ferret; 30 mg/kg oral): Moderate (3/4)
Vomits (conscious ferret; 30 mg/kg oral): Moderate (3/4)
behavioral changes (severity) (conscious ferret; 30 mg/kg, p.o.): pronounced behavioral changes
emetic episodes (retching and vomiting) (conscious ferret; 30 mg/kg, p.o., in 3/4 animals): moderate to marked emesis
emetic episodes (retching and vomiting) (conscious ferret; 0.1-3 mg/kg, p.o.): no emetic episodes
behavioral changes (severity) (conscious ferret; 0.1-3 mg/kg, p.o., flattened posture, lip licking and backward walking): mild
Threshold emetic dose (conscious ferret; conscious ferret, p.o.): 10 mg/kg
Therapeutic index (conscious ferret; threshold emetic dose divided by ED50 for pulmonary neutrophilia): 12
PDE Specificity Ratio PDE4/PDE3 ([1]; from above data): >1200 fold
inhibition at 10 µM ([1]; read-out: PDE3 (% inhib at 10 µM)): 20%
EC50 (cAMP): 1.58 µM

Source: patent EP2276483B1, “SOLID FORMS COMPRISING (+)-2-[1-(3-ETHOXY-4-METHOXYPHENYL)-2-METHYLSULFONYLETHYL]-4-ACETYLAMINOISOINDOLINE-1,3-DIONE, COMPOSITIONS THEREOF, AND USES THEREOF” (CELGENE CORPORATION, priority 2008, dated 2009)
